Results as given in ChEMBL document CHEMBL3272108, “Analogues of sparteine. 5. Antiarrhythmic activity of selected N,N'-disubstituted bispidines” (J Med Chem, 1977).
Active and inactive are the calls of the source. The calls are words filed in the database; no cut-off is given here.

How the values were obtained:
[1] = test system: Mus musculus; experiment: Antiarrhythmic activity in ip dosed CF1 mouse by chloroform-fibrillation assay based ECG analysis; format: functional; conditions: CF1, Heart
[2] = Acute toxicity in ip dosed CF1 mouse; conditions: in vivo
[3] = Therapeutic index, ratio of LD50 for CF1 mouse to ED50 for antiarrhythmic activity in CF1 mouse; conditions: in vivo
[4] = Octanol-phosphate buffer apparent partition coefficient, log D of the compound at pH 7.4 by GLC analysis; format: physicochemical
[5] = Binding affinity to calcium nitrate in anhydrous dimethyl-d6-sulfoxide solvent by proton magnetic resonance analysis
[6] = Binding affinity to magnesium nitrate in anhydrous dimethyl-d6-sulfoxide solvent by proton magnetic resonance analysis
[7] = Binding affinity to calcium salt in methanol-d4 solvent by proton magnetic resonance analysis
[8] = Binding affinity to magnesium salt in methanol-d4 solvent by proton magnetic resonance analysis

With `CC(C)N(CCC(C(N)=O)(c1ccccc1)c1ccccn1)C(C)C` (stereo not given) [DISOPYRAMIDE] as the compound, how does the ED50 [1] read?
Its ED50 is 60 µmol/kg.

And the LD50 [2]?
Its LD50 is 504 µmol/kg.

What about the selectivity ratio [3] of the same compound?
Its selectivity ratio is 8.4.

With `Br.CCCCN1CC2CC(CN(C)C2)C1` as the compound, how does the ED50 [1] read?
Its ED50 is 192 µmol/kg.

And the LD50 [2]?
The LD50 was 207 µmol/kg.

What about the selectivity ratio [3] of the same compound?
The selectivity ratio was 1.08.

And the logD [4]?
Its logD is -3.39.

With `CC(C)C1C2CC(CN(C)C2)CN1C.Cl` (stereo not given) as the compound, how does the ED50 [1] read?
Its ED50 is 191 µmol/kg.

What about the LD50 [2] of the same compound?
The LD50 was 279 µmol/kg.

What about the selectivity ratio [3] of the same compound?
Its selectivity ratio is 1.46.

What about the logD [4] of the same compound?
Its logD is -3.4.

Which ED50 [1] does the source give for `CN1CC2CC(C1)CN(C(c1ccccc1)c1ccccc1)C2.Cl` here?
The ED50 was 259 µmol/kg.

And the LD50 [2]?
Its LD50 is 225 µmol/kg.

What about the selectivity ratio [3] of the same compound?
Its selectivity ratio is 0.87.

And the logD [4]?
The logD was -0.43.

Which results are given for `Cl.c1ccc(CN2CC3CC(C2)CN(Cc2ccccc2)C3)cc1`?
ED50 [1]: 160 µmol/kg; LD50 [2]: 199 µmol/kg; selectivity ratio [3]: 1.24; logD [4]: -0.43; Activity [5]: inactive; Activity [6]: inactive

Which ED50 [1] does the source give for `CN1CC2CC(C1)CN(Cc1ccccc1)C2.CS(=O)(=O)O` here?
Its ED50 is 154 µmol/kg.

What about the LD50 [2] of the same compound?
Its LD50 is 189 µmol/kg.

What about the selectivity ratio [3] of the same compound?
The selectivity ratio was 1.23.

And the logD [4]?
The logD was -2.57.

What about the Activity [7] of the same compound?
The Activity was “Active”.

What about the Activity [8] of the same compound?
The Activity was “Active”.

For `C1CCN2C[C@@H]3C[C@@H](CN4CCCC[C@@H]34)[C@H]2C1.O.O.O.O.O.O=S(=O)(O)O` [SPARTEINE SULFATE], which ED50 [1] is on record?
The ED50 was 150 µmol/kg.

And the LD50 [2]?
The LD50 was 134 µmol/kg.

And the selectivity ratio [3]?
The selectivity ratio was 0.89.

And the logD [4]?
Its logD is -1.57.

And the Activity [5]?
The Activity was “inactive”.

And the Activity [6]?
Its Activity is “inactive”.

What about the Activity [7] of the same compound?
The Activity was “Active”.

What about the Activity [8] of the same compound?
Its Activity is “Active”.

For `CCCCN1CC2CC(C1)CN(CCCC)C2.Cl`, which ED50 [1] is on record?
The ED50 was 170 µmol/kg.

What about the LD50 [2] of the same compound?
The LD50 was 196 µmol/kg.

And the selectivity ratio [3]?
The selectivity ratio was 1.23.

And the logD [4]?
Its logD is -2.07.

With `CCCCN1CC2CC(C1)CN(Cc1ccccc1)C2.Cl` as the compound, how does the ED50 [1] read?
Its ED50 is 159 µmol/kg.

And the LD50 [2]?
Its LD50 is 198 µmol/kg.

What about the selectivity ratio [3] of the same compound?
The selectivity ratio was 1.25.

What about the logD [4] of the same compound?
The logD was -1.22.

And the Activity [5]?
The Activity was “inactive”.

And the Activity [6]?
The Activity was “inactive”.
